Assay results reported in patent publication US5188950A, “Method of preparing HIV protease inhibitors” (Merck & Co., Inc., priority 1992, dated 1993).
Values joined by “and” are separate entries in the source; they are usually repeats but may differ in a detail not shown here. Identical values can stand only once.

How the values were obtained:
[1] = Biotransformation of L-689,502 by dog liver slices; assay type: in vitro ADME; settings: dog liver slices incubated with L-689,502; for metabolite share of the total metabolites: % of the total metabolites
[2] = target: T1, HIV protease (Human immunodeficiency virus type 1 group M subtype B, UniProt P12497); assay: Inhibition of microbial expressed viral protease (peptide substrate cleavage, HPLC of products); assay type: biochemical; settings: estimated activities; compounds as isolated from rat liver slices; pH 5.5, 2 hours at 36° C., 283 pM protease
T1 construct: the protease expressed in Escherichia coli; made in house; host or cells: Escherichia coli
Protocol: Inhibition studies of the reaction of the protease expressed in Escherichia coli with a peptide substrate [Val-Ser-Gln-Asn-(betanapthyl)Ala-Pro-Ile-Val, 0.665 mg/mL at the time the reaction is initiated] were carried out. Aliquots of 40 μl of substrate in substrate buffer (60 mM Na acetate, pH 5.5, in 0.117% BSA) were combined with 10 μl aliquots of various concentrations of inhibitor. The reaction was initiated by the addition of 10 μl of 1.7 nM protease in a solution of 0.05M Na acetate, pH 5.5, in 10% glycerol, 1 mM DTT, 1 mM EDTA, and 64 μM octoxynol-9.5 to yield a final concentration of 283 pM protease. Incubation proceeded for 2 hours at 36° C. The reaction was quenched with 75 ul of 5% phosphoric acid. Products of the reaction were separated by HPLC. The extent of inhibition of the reaction was determined from the peak heights of the products.

[3] = Biotransformation of L-689,502 by rat liver slices; assay type: in vitro ADME; settings: for metabolite share of the total metabolites: rat liver slices incubated with L-689,502, pH 7.4, 37° C., % of the total metabolites
Protocol: L-689,502 (5.65 μmole) was incubated at pH 7.4, 37° C., with rat liver slices (1 cm wide, 200-300μ 3.7 g) in 100 ml of Williams' Medium E (composition described in Sigma commercial circular, pages 1-5, herein incorporated by reference for this purpose). A gradual increase in the metabolites in an organic extract of the medium was observed over a period of 5 hours when ~31% of .he drug was metabolized. Three of the major metabolites M1 (6.1% of the total metabolites) and M2 (6.3%) and M4 (12.1%) were characterized by ^1 H-NMR and FAB/Mass spectroscopies. Exact mass measurements, by high resolution FAB/MS, for M1 and M2 gave a molecular ion at m/z 690.375305, which computed to an empirical formula of C39 H52 N3 O8 for the protonated form. The M4 peak was also matched with a synthetic standard by HPLC, MS and NMR.

| metabolite share of the total metabolites [1] [%] | IC50 [2] | metabolite share of the total metabolites [3] [%] | metabolised at 5 h, 56.5 µM ([3]; over 5 hours, pH 7.4, 37° C., rat liver slices, 5.65 μmole in 100 ml Williams' Medium E, read-out: drug metabolized) [%] | amount of metabolite peak (in words) ([1]; HPLC) | SMILES |
| --- | --- | --- | --- | --- | --- |
| 13.1 | 2.7 nM | 6.1 |  |  | CC(C)(C)OC(=O)N[C@@H](Cc1ccccc1)[C@@H](O)C[C@@H](Cc1ccc(OCCN2CCOCC2)cc1)C(=O)N[C@H]1c2ccccc2[C@H](O)[C@H]1O [M1] |
|  | 0.93 nM and 0.95 nM |  | ~31 |  | CC(C)(C)OC(=O)N[C@@H](Cc1ccccc1)[C@@H](O)C[C@@H](Cc1ccc(OCCN2CCOCC2)cc1)C(=O)N[C@H]1c2ccccc2C[C@H]1O [L-689,502, N-(cis-2(R)-hydroxy-1(S)-indanyl)-5(S)-(1,1-dimethylethoxycarbonylamino)-4(S)-hydroxy-6-phenyl-2(R)-[(4-(2-(4-morpholinyl)ethoxy)phenyl)methyl]-hexanamide] |
| 1.6 | 1.3 nM | 6.3 |  |  | CC(C)(C)OC(=O)N[C@@H](Cc1ccccc1)[C@@H](O)C[C@@H](Cc1ccc(OCCN2CCOCC2)cc1)C(=O)N[C@H]1c2cccc(O)c2C[C@H]1O [M2] |
|  | ~0.5 nM | 12.1 |  | a small amount | CC(C)(C)OC(=O)N[C@@H](Cc1ccccc1)[C@@H](O)C[C@@H](Cc1ccc(OCCN2CCOCC2=O)cc1)C(=O)N[C@H]1c2ccccc2C[C@H]1O [M4] |
